Data from paper PMC1660542, “Structure-based discovery of inhibitors of the YycG histidine kinase: New chemical leads to combat Staphylococcus epidermidis infections” (BMC Microbiology, 2006).

Biological target: T1, YycG' protein (Staphylococcus epidermidis, UniProt Q8CU87)
T1 construct: of YycG (370aa to 610aa) was amplified by PCR; His-tag (pET28a) (N); made in house; host or cells: E. coli BL21 (pET28a, pETYycG')
Test: Compound-YycG' protein binding assay (SPR, Biacore 3000)
Conditions: SPR sensorgram shape
Description: The YycG' fragment containing the cytoplasmic signal domains (the HATPase_c and HisKA domain, see Figure 1A) of YycG (370aa to 610aa) was amplified by PCR (with the chromosomal DNA of S. epidermidis ATCC12228 as the template, and (5' […] 3') and (5' […] 3') as the primers. Subsequently, the fragment was digested with BamHI and XholI (TAKARA, Japan) and ligated into the corresponding sites of pET28a (Promega, Madison, USA) to obtain pETYycG'. The expressed YycG' protein was purified with the ProBond™ Purification System (Invitrogen, California, USA), according to the manufacturer's protocol.
The in vitro binding affinities of the inhibitor compounds to the YycG' protein was determined using surface plasmon resonance (SPR) biosensor technology on the dual flow cell Biacore 3000 instrument (Biacore AB, Uppsala, Sweden) with a similar method as described in our previous study. Immobilization of the YycG' protein to the hydrophilic carboxymethylated dextran matrix of the sensor chip CM5 (Biacore) was carried out by the standard primary amine coupling reaction. […] The equilibrium constants (KD) evaluating the protein-ligand binding affinity were determined by the steady state or the kinetic state affinity fitting model encoded in the Biacore analysis software.

T1 sequence (Q8CU87 370-610): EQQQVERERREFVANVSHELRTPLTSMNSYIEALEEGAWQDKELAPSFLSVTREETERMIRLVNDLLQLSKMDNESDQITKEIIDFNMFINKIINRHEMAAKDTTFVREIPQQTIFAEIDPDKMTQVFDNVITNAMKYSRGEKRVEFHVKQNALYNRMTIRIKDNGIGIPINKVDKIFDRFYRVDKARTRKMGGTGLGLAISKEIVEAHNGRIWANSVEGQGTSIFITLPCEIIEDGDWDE

SMILES: Cc1ccc(NC(=O)CN2C(=O)S/C(=C\c3ccc(OCc4cccc(C(O)O)c4)cc3)C2=O)cc1 [Compound 7]
- Association/dissociation pattern in SPR: slow association and slow dissociation
